The text below walks through data of patent US20150254433A1, “Methods and Models for Determining Likelihood of Cancer Drug Treatment Success Utilizing Predictor Biomarkers, and Methods of Diagnosing and Treating Cancer Using the Biomarkers” (priority 2014, published 2015).

The test system of experiment [1] is breast cancer cell lines. Nature of the experiment: Drug response (GI50, 50% reduction in proliferation) of breast cancer cell lines in culture. The class given is cell-based. Particulars: for range of observed drug sensitivities, in words, relative to another drug: comparison of sensitivity ranges across cell lines; for range over which the cell lines varied in sensitivity to the drug: sensitivity = negative base ten logarithm of the 50% growth inhibition concentration, difference between most and least sensitive cell lines. An excerpt:
Recently, large datasets describing the effects of various drugs on the growth of cancer cells in culture have been generated for the purpose of accelerating the preclinical evaluation of new compounds. One of largest datasets with respect to the number of drugs and breast cancer cell lines describes the effects of ninety (90) different drugs on seventy (70) different breast cancer cell lines. The dataset includes measurements of the concentration of each drug that causes a 50% reduction in the proliferation of cells in culture (i.e., GI50). […] Acquired resistance to chemotherapeutics or targeted agents is recognized and is being studied intensively. […] There appears to be a relatively large amount of intrinsic variability in the responses to drugs by these tumor-derived cell lines. These intrinsic differences in sensitivity, if replicated in breast tumors, could explain some of the variability in responses of tumors to chemotherapeutic drugs or targeted agents.
Another dataset that is statistically analyzed using lasso regression (e.g., a least absolute shrinkage and selection operator [i.e., lasso] regression model) includes responses of the cancer cell lines to various cancer treatment drugs (e.g., 5, 10, 20, 30, 40, 50 or more drugs). In one example described herein, the datasets include responses from approximately 90 drugs on 70 different breast cancer cell lines. As mentioned elsewhere herein, the drug response data are determined by measuring the concentration of drugs or compounds that causes a 50% reduction (e.g., GI50 or IC50 data) in the proliferation of the cells in culture.
Sensitivity is the negative base ten logarithm of the 50% growth inhibition concentration. In the RPPA dataset, which has the most cell lines, the HER2 overexpressing lines are clearly separated from the others. This difference was used to define HER2 overexpression (e.g., represented by open circles), and the same definition of overexpression versus normal expression is used in the other protein datasets and in other Figures herein. For the glycoprotein and MRM datasets, the base ten logarithms are given on the horizontal axes. The quantitative relationships between HER2 expression levels and drug sensitivities in FIG. 2 are shown in scatterplots, in which each point corresponds to a particular cell line. The protein datasets all include cell lines that overexpress HER2. These cell lines are generally clustered on the right sides of the plots as separate groups.

Experiment [2] relates to breast cancer cell lines. The settings on record: FIG. 2; HER2 over-expressing versus other breast cancer cell lines; cited from earlier work.

With `O=c1[nH]c2ccccc2n1C1CCN(Cc2ccc(-c3nc4cc5[nH]cnc5cc4nc3-c3ccccc3)cc2)CC1` [Sigma AKT1,2 inhibitor], the “range of observed drug sensitivities, in words, relative to another drug” value with breast cancer cell lines [1] is recorded as “significantly lower”.
On the same count and under the same terms, in the case of `CC(=O)O[C@@]12CO[C@@H]1C[C@H](O)[C@@]1(C)C(=O)[C@H](O)C3=C(C)[C@@H](OC(=O)[C@H](O)[C@@H](NC(=O)OC(C)(C)C)c4ccccc4)C[C@@](O)([C@@H](OC(=O)c4ccccc4)[C@H]21)C3(C)C` [docetaxel] it was “much smaller range than the sensitivity of the cell lines to rapamycin”.
For `Nc1ccn([C@@H]2O[C@H](CO)[C@@H](O)C2(F)F)c(=O)n1` [gemcitabine], the “range over which the cell lines varied in sensitivity to the drug” value (“range over which the cell lines varied” for short) in the experiment on breast cancer cell lines [1] was “approximately four”.
For `CS(=O)(=O)CCNCc1ccc(-c2ccc3ncnc(Nc4ccc(OCc5cccc(F)c5)c(Cl)c4)c3c2)o1` [lapatinib], the “drug sensitivity of HER2 over-expressing cell lines” value in the experiment with breast cancer cell lines [2] is listed as “comparatively high drug sensitivity”.
Regarding `CO[C@H]1C[C@@H]2CC[C@@H](C)[C@@](O)(O2)C(=O)C(=O)N2CCCC[C@H]2C(=O)O[C@H]([C@H](C)C[C@@H]2CC[C@@H](OCCO)[C@H](OC)C2)CC(=O)[C@H](C)/C=C(\C)[C@@H](O)[C@@H](OC)C(=O)[C@H](C)C[C@H](C)/C=C/C=C/C=C/1C` [everolimus], in the experiment with breast cancer cell lines [1], the “range over which the cell lines varied” value is 3.3 orders of magnitude.
In the case of `CC(=O)O[C@H]1C(=O)[C@@]2(C)[C@H]([C@H](OC(=O)c3ccccc3)[C@]3(O)C[C@H](OC(=O)[C@H](O)[C@@H](NC(=O)c4ccccc4)c4ccccc4)C(C)=C1C3(C)C)[C@]1(OC(C)=O)CO[C@@H]1C[C@@H]2O` [paclitaxel], the “range of observed drug sensitivities, in words, relative to another drug” value with breast cancer cell lines [1] is given as “much smaller range than the sensitivity of the cell lines to rapamycin”.
`CO[C@H]1C[C@@H]2CC[C@@H](C)[C@@](O)(O2)C(=O)C(=O)N2CCCC[C@H]2C(=O)O[C@H]([C@H](C)C[C@@H]2CC[C@@H](O)[C@H](OC)C2)CC(=O)[C@H](C)/C=C(\C)[C@@H](O)[C@@H](OC)C(=O)[C@H](C)C[C@H](C)/C=C/C=C/C=C/1C` [rapamycin]: the “range over which the cell lines varied” value in the experiment on breast cancer cell lines [1] is 4.6 orders of magnitude.
Regarding `CO[C@H]1C[C@@H]2CC[C@@H](C)[C@@](O)(O2)C(=O)C(=O)N2CCCC[C@H]2C(=O)O[C@H]([C@H](C)C[C@@H]2CC[C@@H](OC(=O)C(C)(CO)CO)[C@H](OC)C2)CC(=O)[C@H](C)/C=C(\C)[C@@H](O)[C@@H](OC)C(=O)[C@H](C)C[C@H](C)/C=C/C=C/C=C/1C` [temsirolimus], in the experiment with breast cancer cell lines [1], the “range over which the cell lines varied” value was 3.7 orders of magnitude.
The same measure, in the same setting: the same measure for `CCC1=C[C@@H]2CN(C1)Cc1c([nH]c3ccccc13)[C@@](C(=O)OC)(c1cc3c(cc1OC)N(C)[C@H]1[C@@](O)(C(=O)OC)[C@H](OC(C)=O)[C@]4(CC)C=CCN5CC[C@]31[C@@H]54)C2` [vinorelbine]: “approximately four”.
